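Results reflect a 48-hour exposure of cells in 96-well plates to compound at five concentrations. Abbreviation: GI50, concentration required for 50% inhibition of growth. TGI: total growth inhibition.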
Experiments:
Assay in all cases: NCI tumour cell line growth inhibition, 48 h
[1] = system: SNB-75 CNS
[2] = system: KM12 colon
[3] = system: CAKI-1 renal
[4] = system: OVCAR-8 ovarian
[5] = system: SW-620 colon
[6] = system: A549 NSCLC
[7] = system: XF 498 CNS
[8] = system: P388 leukemia
[9] = system: DMS 114 small cell lung
[10] = system: SNB-78 CNS
[11] = system: DMS 273 small cell lung
[12] = system: P388/ADR leukemia
[13] = system: HOP-18 NSCLC
[14] = system: M19-MEL melanoma
[15] = system: KM20L2 colon
[16] = system: DLD-1 colon
[17] = system: SN12K1 renal

## CCCCOc1ccc2c(c1)CC[C@@H]1[C@@H]2CC[C@]2(C)C(=O)N(CCCC)C(=O)C[C@@H]12
[1]
  TGI: > 100 µM
[2]
  TGI: > 100 µM
[3]
  TGI: > 100 µM
[4]
  TGI: > 100 µM

## CCOC(=O)C1=C(c2ccccc2)C12N(Cc1ccccc1)C(=O)C2(c1ccccc1)c1ccccc1 (stereo not drawn)
[5]
  TGI: > 100 µM
[2]
  TGI: > 100 µM

## N#Cc1ccc(C2Oc3ccc(Cl)cc3C=C2[N+](=O)[O-])cc1 (stereo not drawn)
[1]
  TGI: 2.83 µM
[2]
  TGI: 3.81 µM
[3]
  TGI: 2.96 µM
[6]
  TGI: 3.3 µM

## Cc1ccc(C#CS(=O)(=O)C(F)(F)F)cc1
[1]
  TGI: > 100 µM
[7]
  TGI: > 100 µM
[8]
  TGI: > 100 µM
[5]
  TGI: > 100 µM
[9]
  TGI: > 100 µM
[10]
  TGI: > 100 µM
[11]
  TGI: > 100 µM
[12]
  TGI: > 100 µM
[2]
  TGI: > 100 µM
[13]
  TGI: > 100 µM
[14]
  TGI: > 100 µM
[15]
  TGI: > 100 µM
[6]
  TGI: > 100 µM
[4]
  TGI: > 100 µM
[16]
  TGI: > 100 µM
[17]
  TGI: > 100 µM

## COc1cc(-c2nc3cc(Cl)c(Cl)cc3[nH]2)ccc1OCC(=O)N=Nc1c(O)[nH]c2ccc(Cl)cc12
[1]
  GI50: 1 µM
  TGI: 3.93 µM
